Assays:
[1] = tested on: Lolium spp. resistant to HRAC group A; assay: Greenhouse experiment, post-emergence treatment of resistant ryegrass biotypes (HRAC group A resistant); format: in vivo; settings: post-emergence (PO, BBCH 11), about 3 weeks after application, dose g of AS/ha: aclonifen 225, pendimethalin 300, diflufenican 30, mixture 225 + 300 + 30, pinoxaden + cloquintocet-mexyl 60 + 15
Experimental: (§1) In the standard design of the test, seeds of various broad-leaved weed and weed grass biotypes (origins) were sown in a 8-13 cm diameter pot filled with natural soil of a standard field soil (loamy silt; non-sterile) and covered with a covering soil layer of about 1 cm. The pots were then cultivated in a greenhouse (12-16 h light, temperature day 20-22° C., night 15-18° C.) until the time of application. The pots were treated on a laboratory track sprayer with spray liquors comprising the compositions according to the invention, mixtures of the prior art or components used individually. Application of the active compounds or active compound combinations formulated as WG, WP, EC or otherwise was carried out at the appropriate growth stages of the plants. The amount of water used for spray application was 100-600 l/ha. After the treatment, the plants were returned to the greenhouses.
(§2) About 3 weeks after the application, the soil action or/and foliar action was assessed visually according to a scale of 0-100% in comparison to an untreated comparative group: 0%=no noticable effect compared to the untreated comparative group; 100%=full effect compared to the untreated comparative group.
(§3) 2. Post-emergence action against weeds: seeds of various broad-leaved weed and weed grass biotypes (origins) were sown in a 8-13 cm diameter pot filled with natural soil of a standard field soil (loamy silt; non-sterile) and covered with a covering soil layer of about 1 cm. […]
(§4) Insofar as herbicidal effects of the compositions according to the invention compared to mixtures of the prior art or compared to components applied individually against economically important mono- and dicotyledonous harmful plants were the center of attention, the synergistic herbicidal activities were calculated using Colby's formula (cf. S. R. Colby; Weeds 15 (1967), 20-22): E^C=(A+B+C)−(A×B+A×C+B×C)/100+(A×B×C)/10000 where: […]
(§5) Δ=difference (%) of the measured value (%) to the expected value (%) (measured value minus expected value). […]

[2] = tested on: Lolium spp. resistant to HRAC group B; assay: Greenhouse experiment, post-emergence treatment of resistant ryegrass biotypes (HRAC group B resistant); format: in vivo; settings: post-emergence (PO, BBCH 11), about 3 weeks after application, dose g of AS/ha: aclonifen 225, pendimethalin 300, diflufenican 30, mixture 225 + 300 + 30, mesosulfuron + iodosulfuron + mefenpyr 15 + 3 + 45
Experimental: as §1, §2, §3, §4, §5

| SMILES | herbicidal effect (visual assessment, scale 0-100% vs untreated), measured value [1] [%] | herbicidal effect (visual assessment, scale 0-100% vs untreated), measured value [2] [%] |
| --- | --- | --- |
| O=C(Nc1ccc(F)cc1F)c1cccnc1Oc1cccc(C(F)(F)F)c1 [(C) diflufenican, N-(2,4-difluorophenyl)-2-[3-(trifluoromethyl)phenoxy]-3-pyridinecarboxamide] | 10 | 5 |
| CCC(CC)Nc1c([N+](=O)[O-])cc(C)c(C)c1[N+](=O)[O-] [(B) pendimethalin, N-(1-ethylpropyl)-3,4-dimethyl-2,6-dinitrobenzenamine] | 5 | 0 |
| Nc1c([N+](=O)[O-])ccc(Oc2ccccc2)c1Cl [(A) aclonifen, 2-chloro-6-nitro-3-phenoxybenzenamine] | 25 | 50 |
